Reference: ChEMBL document CHEMBL5505987 (Eur J Med Chem, 2024)
Structures can show the parent of a compound that is named as a salt.

Key:
Assay type in all cases: functional, cell-based
[1] = test system: 4T1; assay: Cytotoxicity against mouse 4T1 cells assessed as cell viability by MTT assay
[2] = test system: HeLa; assay: Cytotoxicity against human HeLa cells assessed as cell viability by MTT assay
[3] = test system: A549; assay: Cytotoxicity against human A549 cells assessed as cell viability by MTT assay
[4] = test system: MDA-MB-231; assay: Cytotoxicity against human MDA-MB-231 cells assessed as cell viability by MTT assay
[5] = test system: MCF7; assay: Cytotoxicity against human MCF7 cells assessed as cell viability by MTT assay

Compound	IC50 [1]	IC50 [2]	IC50 [3]	IC50 [4]	IC50 [5]
COc1cccc2c1C(=O)c1c(O)c3c(c(O)c1C2=O)C[C@@](O)(C(=O)CO)C[C@@H]3O[C@H]1C[C@H](N)[C@H](O)[C@H](C)O1 [DOXORUBICIN HYDROCHLORIDE]	2.4 µM				
O=C1C[C@H](c2ccccc2)Oc2cc(O)c([C@H](/C=C/C[C@@H](O)CCc3ccccc3)c3ccccc3)c(O)c21		1.58 µM	5.59 µM	3.45 µM	12.5 µM
O=C1C[C@H](c2ccccc2)Oc2cc(O)c([C@@H](/C=C/C[C@@H](O)CCc3ccccc3)c3ccccc3)c(O)c21		2 µM	5.27 µM	4.05 µM	8.5 µM
